Assay results as given in patent US7378497B2, “Potassium channels and genes encoding these potassium channels” (NeuroSearch A/S, priority 1999, dated 2008).

Tests used:
KCNQ4 = molecular target: T1, KCNQ4 (Homo sapiens, UniProt P56696, H455Q); assay: Two-electrode voltage clamp of KCNQ4 currents in Xenopus oocytes; type: cell-based; conditions: 200 μM Linopirdine
T1 construct: A complete cDNA was assembled and cloned into the oocyte expression vector PTLN; expressed in transfected cells; host or cells: Xenopus oocytes (cRNA injection)
T1 sequence (P56696 1-695 H455Q): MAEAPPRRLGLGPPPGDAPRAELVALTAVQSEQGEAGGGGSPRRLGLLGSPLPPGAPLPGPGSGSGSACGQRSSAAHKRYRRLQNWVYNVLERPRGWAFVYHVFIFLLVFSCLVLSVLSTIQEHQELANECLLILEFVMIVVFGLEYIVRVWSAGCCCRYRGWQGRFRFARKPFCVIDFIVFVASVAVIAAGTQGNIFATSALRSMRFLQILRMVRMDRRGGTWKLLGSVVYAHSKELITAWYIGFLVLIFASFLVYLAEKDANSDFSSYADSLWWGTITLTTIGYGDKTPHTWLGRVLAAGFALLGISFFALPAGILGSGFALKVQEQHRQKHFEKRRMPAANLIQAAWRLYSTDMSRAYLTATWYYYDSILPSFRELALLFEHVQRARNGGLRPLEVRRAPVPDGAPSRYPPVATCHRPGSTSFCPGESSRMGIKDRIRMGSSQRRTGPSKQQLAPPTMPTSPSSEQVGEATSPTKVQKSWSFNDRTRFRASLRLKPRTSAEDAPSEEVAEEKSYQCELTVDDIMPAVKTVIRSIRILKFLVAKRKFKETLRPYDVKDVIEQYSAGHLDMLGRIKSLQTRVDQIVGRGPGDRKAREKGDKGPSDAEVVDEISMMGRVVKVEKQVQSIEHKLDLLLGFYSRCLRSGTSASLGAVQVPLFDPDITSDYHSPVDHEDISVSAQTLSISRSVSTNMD
Protocol: (§1) KCNQ4 was expressed in Xenopus oocytes and its activity was investigated by two-electrode voltage clamping.
(§2) After linearization of the KCNQ4-containing PTLN vector with Hpal, capped cRNA was transcribed in vitro using the mMessage mMachine cRNA synthesis kit (Ambion). Usually 5-15 ng of cRNA were injected into Xenopus oocytes previously isolated by manual defolliculation and short collagenase treatment. In co-expression experiments cRNAs were injected at a 1:1 ratio. Oocytes were kept at 17° C. in modified Barth's solution (90 mM NaCl, 1 mM KCl, 0.41 mM CaCl2, 0.33 mM Ca(NO3)2, 0.82 mM MgSO4, 10 mM HEPES, 100 U penicillin-100 μg streptomycin/ml, pH 7.6).
(§3) Standard two-electrode voltage-clamp measurements were performed at room temperature 2-4 days after injection using a Turbotec 05 amplifier (npi instruments, Tamm, Germany) and pClamp 5.5 software (Axon Instruments). Currents were usually recorded in ND98 solution (see Table 2). Solutions for Na^+/K^+replacement experiments were prepared from an appropriate mixture of solution KD100 (100 mM KCl) and ND100 (100 mM NaCl) to yield the stated concentrations of Na^+and K^+. Linopirdine (RBI, Natick, Mass.) was prepared as a 100 mM stock solution in DMSO and added to a final concentration of 200 μM to ND98.

KCNQ3/KCNQ4 = molecular target: T2, KCNQ3/KCNQ4 (Homo sapiens, UniProt O43525+P56696, H455Q); assay: Two-electrode voltage clamp of KCNQ3+KCNQ4 co-expression currents in Xenopus oocytes; type: cell-based; conditions: 200 μM Linopirdine
T2 construct: A complete cDNA was assembled and cloned into the oocyte expression vector PTLN; expressed in transfected cells; host or cells: Xenopus oocytes (cRNAs co-injected 1:1)
T2 sequence (P56696 1-695 H455Q): T1 sequence (P56696 1-695 H455Q)
T2 sequence (O43525 1-872): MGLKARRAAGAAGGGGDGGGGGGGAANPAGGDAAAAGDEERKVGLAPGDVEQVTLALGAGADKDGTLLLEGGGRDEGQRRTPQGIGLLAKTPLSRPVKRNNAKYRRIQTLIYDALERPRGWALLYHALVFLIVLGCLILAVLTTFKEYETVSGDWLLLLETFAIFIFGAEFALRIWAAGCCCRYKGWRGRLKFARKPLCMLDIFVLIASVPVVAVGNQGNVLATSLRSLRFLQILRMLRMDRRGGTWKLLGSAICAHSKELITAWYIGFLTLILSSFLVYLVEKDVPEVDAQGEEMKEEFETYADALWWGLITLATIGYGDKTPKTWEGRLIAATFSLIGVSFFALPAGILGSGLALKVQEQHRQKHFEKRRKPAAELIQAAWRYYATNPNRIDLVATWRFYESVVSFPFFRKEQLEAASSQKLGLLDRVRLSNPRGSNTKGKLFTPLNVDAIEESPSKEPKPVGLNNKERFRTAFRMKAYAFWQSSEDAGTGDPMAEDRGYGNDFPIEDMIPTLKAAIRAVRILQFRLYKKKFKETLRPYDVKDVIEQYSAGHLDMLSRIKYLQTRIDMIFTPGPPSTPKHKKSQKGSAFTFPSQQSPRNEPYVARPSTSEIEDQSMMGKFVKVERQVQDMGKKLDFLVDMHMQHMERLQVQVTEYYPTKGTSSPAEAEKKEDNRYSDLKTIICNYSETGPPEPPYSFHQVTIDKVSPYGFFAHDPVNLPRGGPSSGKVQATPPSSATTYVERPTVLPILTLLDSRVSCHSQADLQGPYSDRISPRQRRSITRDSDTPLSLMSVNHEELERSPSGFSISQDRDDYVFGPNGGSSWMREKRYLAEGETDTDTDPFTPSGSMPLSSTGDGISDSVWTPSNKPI
Protocol: as §1, §2, §3

KCNQ2/KCNQ3 channels = KCNQ2/KCNQ3 channels (Homo sapiens, UniProt O43525+O43526, N780T); conditions: 200 μM Linopirdine; cited from earlier work
KCNQ2/KCNQ3 channels, sequence (O43526 1-844 isoform O43526-3 N752T, one chain of several): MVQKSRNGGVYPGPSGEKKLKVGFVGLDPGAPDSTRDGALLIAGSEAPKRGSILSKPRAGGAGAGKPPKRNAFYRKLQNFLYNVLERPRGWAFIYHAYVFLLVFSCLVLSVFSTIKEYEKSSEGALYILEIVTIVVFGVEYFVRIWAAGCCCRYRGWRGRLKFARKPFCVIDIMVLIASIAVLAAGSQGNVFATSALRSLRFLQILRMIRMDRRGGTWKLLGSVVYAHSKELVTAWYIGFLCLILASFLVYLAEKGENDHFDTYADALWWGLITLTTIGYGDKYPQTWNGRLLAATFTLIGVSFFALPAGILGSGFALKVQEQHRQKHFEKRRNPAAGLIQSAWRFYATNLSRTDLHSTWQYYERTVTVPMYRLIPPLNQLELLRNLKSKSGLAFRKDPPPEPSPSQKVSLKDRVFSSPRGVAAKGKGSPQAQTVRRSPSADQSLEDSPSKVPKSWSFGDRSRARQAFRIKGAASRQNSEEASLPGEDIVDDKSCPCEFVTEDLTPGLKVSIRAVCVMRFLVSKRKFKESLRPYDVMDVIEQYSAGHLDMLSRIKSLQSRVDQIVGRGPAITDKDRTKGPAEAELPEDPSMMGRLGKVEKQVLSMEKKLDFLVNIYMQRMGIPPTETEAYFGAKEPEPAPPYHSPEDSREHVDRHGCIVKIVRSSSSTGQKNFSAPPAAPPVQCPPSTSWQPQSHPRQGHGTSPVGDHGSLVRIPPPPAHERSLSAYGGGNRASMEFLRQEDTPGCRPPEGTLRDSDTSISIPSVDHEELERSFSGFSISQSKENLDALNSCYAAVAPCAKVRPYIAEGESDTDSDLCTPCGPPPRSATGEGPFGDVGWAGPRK

time to steady-state inhibition of KCNQ4 currents after addition (KCNQ4): ~1 min
inhibition at 200 µM (KCNQ4; currents measured at +40 mV, Xenopus oocytes, ND98, read-out: inhibition of KCNQ4 current): ~30%
time to steady-state inhibition of KCNQ3+KCNQ4 currents after addition (KCNQ3/KCNQ4): ~3 min
inhibition of KCNQ3/KCNQ4 co-expression current (KCNQ3/KCNQ4; currents measured at +40 mV, Xenopus oocytes, ND98): ≈ 75%
Compound: O=C1N(c2ccccc2)c2ccccc2C1(Cc1ccncc1)Cc1ccncc1 [Linopirdine, 1,3-dihydro-1-phenyl-3,3-bis(4-pyridylmethyl)-2H-indol-2-one]
inhibition of KCNQ2/KCNQ3 channels (KCNQ2/KCNQ3 channels): nearly completely inhibits
